Test results: the NIST ThermoML archive (doi:10.1021/je800203s)

Assays:
[1] = Crystal
[2] = Molar enthalpy of transition or fusion; settings: Crystal
[3] = molar heat capacity at constant pressure; settings: 101.33 kPa

COc1ccc(CC#N)cc1OC [(3,4-dimethoxyphenyl)acetonitrile]
Settings | Molar enthalpy of transition or fusion [kcal/mol] | Triple point temperature [K]
[1] | – | 337.08
[2] | 5.91 | –

[3]
Settings | molar heat capacity at constant pressure [J/K/mol]
78.32 K, Crystal | 80.52
80 K, Crystal | 82.15
81.06 K, Crystal | 82.37
84.38 K, Crystal | 84.71
85 K, Crystal | 85.39
87.3 K, Crystal | 87.42
90 K, Crystal | 88.81
90.17 K, Crystal | 89.84
93.05 K, Crystal | 91.31
95 K, Crystal | 92.41
95.92 K, Crystal | 93.07
98.78 K, Crystal | 94.96
100 K, Crystal | 96.15
102.8 K, Crystal | 97.78
105 K, Crystal | 100
106.79 K, Crystal | 101.8
109.62 K, Crystal | 103.7
110 K, Crystal | 104
112.5 K, Crystal | 106.5
115 K, Crystal | 108
115.38 K, Crystal | 108.6
118.25 K, Crystal | 111
120 K, Crystal | 112.1
121.12 K, Crystal | 113.3
123.99 K, Crystal | 115.6
125 K, Crystal | 116.3
126.87 K, Crystal | 118
129.71 K, Crystal | 120.3
130 K, Crystal | 120.4
132.55 K, Crystal | 122.1
135 K, Crystal | 124.6
135.4 K, Crystal | 124.9
138.26 K, Crystal | 127.8
140 K, Crystal | 128.8
141.12 K, Crystal | 129.7
143.94 K, Crystal | 131.8
145 K, Crystal | 133
146.78 K, Crystal | 134.2
149.62 K, Crystal | 136.7
150 K, Crystal | 137.1
153.27 K, Crystal | 139.5
155 K, Crystal | 141.2
156.88 K, Crystal | 142.9
159.69 K, Crystal | 144.6
160 K, Crystal | 145.3
162.54 K, Crystal | 146.5
165 K, Crystal | 149.3
165.37 K, Crystal | 148.6
168.16 K, Crystal | 151.4
170 K, Crystal | 153.3
170.93 K, Crystal | 153.9
173.78 K, Crystal | 156.3
175 K, Crystal | 157.2
176.63 K, Crystal | 157.8
179.46 K, Crystal | 159.5
180 K, Crystal | 161
182.27 K, Crystal | 162.3
185 K, Crystal | 164.7
185.06 K, Crystal | 164.3
187.83 K, Crystal | 167.4
190 K, Crystal | 168.4
190.65 K, Crystal | 168.8
195 K, Crystal | 172
196.37 K, Crystal | 174.3
199.23 K, Crystal | 175.5
200 K, Crystal | 175.6
202.71 K, Crystal | 177.3
205 K, Crystal | 179
206.12 K, Crystal | 180.1
208.91 K, Crystal | 182.6
210 K, Crystal | 182.5
211.79 K, Crystal | 184.7
214.67 K, Crystal | 185.5
215 K, Crystal | 185.8
217.53 K, Crystal | 187.8
220 K, Crystal | 189.1
220.39 K, Crystal | 189.8
223.24 K, Crystal | 192.6
225 K, Crystal | 192.4
226.07 K, Crystal | 194.1
228.97 K, Crystal | 196
230 K, Crystal | 195.6
231.92 K, Crystal | 198.1
234.86 K, Crystal | 200.2
235 K, Crystal | 198.8
237.82 K, Crystal | 201.4
240 K, Crystal | 202
240.78 K, Crystal | 203
244.26 K, Crystal | 204.7
245 K, Crystal | 205.2
247.72 K, Crystal | 206
250 K, Crystal | 208.4
250.62 K, Crystal | 206.7
253.5 K, Crystal | 208.8
255 K, Crystal | 211.6
256.38 K, Crystal | 210.7
259.24 K, Crystal | 213.1
260 K, Crystal | 214.9
262.1 K, Crystal | 214.8
264.94 K, Crystal | 216.4
265 K, Crystal | 218.2
267.89 K, Crystal | 218.3
270 K, Crystal | 221.6
270.93 K, Crystal | 221.1
273.96 K, Crystal | 223.6
275 K, Crystal | 225.2
276.98 K, Crystal | 226.3
279.99 K, Crystal | 228.9
280 K, Crystal | 228.8
283 K, Crystal | 231.4
285 K, Crystal | 232.6
285.98 K, Crystal | 234.1
288.95 K, Crystal | 236.8
290 K, Crystal | 236.6
291.89 K, Crystal | 239.8
294.78 K, Crystal | 242.2
295 K, Crystal | 240.8
297.68 K, Crystal | 245.2
298.15 K, Crystal | 243.5
300 K, Crystal | 245.2
300.71 K, Crystal | 247.1
303.68 K, Crystal | 250.1
305 K, Crystal | 249.8
306.62 K, Crystal | 252.2
309.56 K, Crystal | 254.2
310 K, Crystal | 254.8
312.48 K, Crystal | 256
315 K, Crystal | 260
315.49 K, Crystal | 259.8
318.59 K, Crystal | 261.9
320 K, Crystal | 265.6
321.66 K, Crystal | 267
324.72 K, Crystal | 275
327.73 K, Crystal | 284.8
330.67 K, Crystal | 313
340 K, Liquid | 350.5
342.04 K, Liquid | 352
345 K, Liquid | 353.2
345.02 K, Liquid | 352.7
348.08 K, Liquid | 354.6
350 K, Liquid | 356
351.14 K, Liquid | 356.8
354.19 K, Liquid | 358.7
355 K, Liquid | 358.7
357.24 K, Liquid | 360.1
360 K, Liquid | 361.4
360.28 K, Liquid | 361.3
363.32 K, Liquid | 362.6
365 K, Liquid | 363.9
366.35 K, Liquid | 364.4
369.38 K, Liquid | 366.3
370 K, Liquid | 366.3
372.4 K, Liquid | 367.9
375 K, Liquid | 368.7
375.42 K, Liquid | 368.7
378.43 K, Liquid | 370.1
380 K, Liquid | 371
381.44 K, Liquid | 371.6
384.44 K, Liquid | 373
385 K, Liquid | 373.3
387.44 K, Liquid | 374.5
390 K, Liquid | 375.7
390.43 K, Liquid | 376.1
393.41 K, Liquid | 377.4
395 K, Liquid | 378.4
396.39 K, Liquid | 379.4
399.38 K, Liquid | 380.9
400 K, Liquid | 381.5
